Assays:
[1] = system: Cushing syndrome patients; conditions: patients treated with either mifepristone or metyrapone; cited from earlier work
[2] = system: Cushing syndrome patients; experiment: Adverse events with other medical therapies for Cushing syndrome; assay type: in vivo, human; conditions: one patient treated previously with mifepristone

Row | Structure (SMILES) | drug induced hypokalemia [1] | adverse event on previous therapy [2]
1 | CC(C)(C(=O)c1cccnc1)c1cccnc1 [metyrapone] | commonly seen adverse event | 
2 | CC#C[C@]1(O)CC[C@H]2[C@@H]3CCC4=CC(=O)CCC4=C3[C@@H](c3ccc(N(C)C)cc3)C[C@@]21C [mifepristone] |  | developed endometrial hypertrophy

— patent publication US12097192B2 (Corcept Therapeutics Incorporated, priority 2019, dated 2024)
